Measurements published in paper PMC4176318 (ACS Chemical Neuroscience, 2014).

Tested on: C57Bl/6J mice
Experiment: Tail suspension test
Format: in vivo, mouse
Conditions: 10 mg/kg i.p., 30 min prior to testing, 6 min trial; saline 143.7 ± 3.3 s

| Compound | immobility in TST [s] |
| --- | --- |
| CN(C)CCCC1(c2ccc(F)cc2)OCc2cc(C#N)ccc21 (centres unmarked) [citalopram] | 29.7 ± 14.5 |
| COCCCC/C(=N\OCCN)c1ccc(C(F)(F)F)cc1 [fluvoxamine] | 59.0 ± 12.5 |
